Data published in patent US20240180972A1, “HUMAN PLURIPOTENT STEM CELL-DERIVED SECRETOME AS A BIOLOGIC FOR PREVENTION AND TREATMENT OF NEURODEGENERATIVE AND APOPTOTIC DISEASES” (The Regents of the University of California, priority 2021, published 2024).

Columns and labels:
[1] = tested on: ALS-MNPs; experiment: Viability (MTT) and apoptosis (Annexin V) of H2O2 exposed ALS-MNPs, incl. epigenetic inhibitors screen; type: cell-based, human
Description: […] MNs were cultured in a 96-well plate at a cell density of 2×10^4 and treated with H2O2 and/or CMs for 24 hours before performing the viability assay. A SpectraMax iD3 Multi-Mode Microplate Reader (Molecular Devices) was used for measuring fluorescence intensity (560/590 nm).
The apoptosis assay of fibroblasts was by Annexin V-CF Blue/7-AAD Apoptosis Detection Kit (ab214663, Abcam) according to the manufacturer's protocol. Briefly, cells were detached using 0.05% trypsin and washed twice with PBS. Then, samples were resuspended in 1× annexin-binding buffer and incubated with 5 μL Annexin V-FITC and 5 μL 7-amino-actinomycin D (7AAD) for 15 min at 37° C., avoiding light. Finally, the stained samples were analyzed on a Guava Easycyte Flowcytometer (Millipore-Sigma) at an excitation wavelength of 488 nm and emission filters of 525 and 625 nm. For MNs, the apoptotic assay was conducted on two different markers, FITC-conjugated-annexinV (ab201540) or Cleaved caspase 3 (9669S). For annexinV detection, MNs in 96-well plates were washed twice with PBS. Then, 100 μL Annexin V binding buffer was added with 5 μL Annexin V-FITC for 5 min incubation at 37° C., avoiding light. The stained plate was analyzed on a SpectraMax iD3 Multi-Mode Microplate Reader (490/525 nm). For the Cleaved caspase 3, the immunofluorescence protocol was used.
(§1) For the collection of CM, separate cultures of hiPSCs were set up for 3 days with one of the following small molecules: 5 μM Nanomycin A (A8191, Apexbio), 10 μM LSD1 inhibitor (489476, Millipore-Sigma), 5 μM 5-Azacytidine (C832A53, Thomas Scientific), and 10 μM GSK126 (67-905, Tocris). After 3 days of treatment, CM was collected (without the inhibitors) using the same protocol as described above.
Based on the absence of neuroprotective activity in the differentiated progeny of iPSCs, we decided to confirm and mechanistically extrapolate the relationship between the protective effects and pluripotency. […] To follow on the requirement for pluripotency, we employed a screen with inhibitors of pluripotency that modify the epigenetic states of iPSCs. […]

[2] = tested on: OCT4, NANOG; experiment: Pluripotency marker expression (qRT-PCR) in iPSCs after epigenetic modifiers; type: cell-based, human; conditions: iPSCs treated 3 days: 5 μM Nanomycin A, 10 μM LSD1 inhibitor, 5 μM 5-Azacytidine, 10 μM GSK126
Description: Total RNA was extracted using the RNeasy mini kit (Qiagen), and the SuperScript III First-Strand Synthesis System (Invitrogen) was used to synthesize cDNA according to the manufacturer's instructions. Real-time PCR was performed on a Bio-Rad iQ5 real-time PCR machine.
as §1

[3] = tested on: IMR90 fibroblasts; experiment: MTT viability assay of IMR90 fibroblasts (H2O2, hESC-CM, dF-CM); type: cell-based; conditions: 200 μM H2O2
Text: hESC conditioned medium was previously shown to enhance myogenic and neurogenic responses of tissue precursor cells (43, 44), but the effects on cell viability were less studied. We decided to explore a protective role of hESC conditioned medium (hESC-CM) when cells experience oxidative damage, which is physiologically and clinically relevant in a number of human diseases (56, 57). To set up this experimental system, we first performed dose response studies in IMR90 fibroblasts to varying concentrations of H2O2 and of hESC-CM using an MTT assay.
We then tested eight experimental cohorts, e.g., 200 μM H2O2 alone or in combination with 30% hESC-CM or CM from hESC-derived fibroblasts (dF-CM) (43) and controls for the various culture medium formulations (FIG. 1, panel C).
When cells were grown to 70% confluence, they were subcultured at 1/5 dilution for later passaging.
After H2O2 and/or CM or CM-derived factors treatment, the number of viable cells was determined by a resorufin based assay using the commercially available CellTiter-Blue® cell viability assay (G8080, Promega), as per the manufacturer's protocol. MNs were cultured in a 96-well plate at a cell density of 2×10^4 and treated with H2O2 and/or CMs for 24 hours before performing the viability assay. A SpectraMax iD3 Multi-Mode Microplate Reader (Molecular Devices) was used for measuring fluorescence intensity (560/590 nm). […]

[4] = tested on: human motor neurons (MNs); experiment: MTT viability and Annexin V apoptosis assays of human motor neurons exposed to H2O2; type: cell-based
Description: The process of MNP and MN differentiation was as published (61). Briefly, hPSCs were detached by 0.5 mM EDTA and split 1:10 on Matrigel-coated plates (1:50 dilution). After one day, the Essential 8 was changed to neural inducing medium containing neural basal medium (NBM) plus 3 μM CHIR99021 (Tocris), 2 μM LDN-193189 (Tocris) and 3 μM SB431542 (Stemgent). The NBM is composed of DMEM/F12, Neurobasal medium (FisherScientific) at 1:1, N2, B27, 0.1 mM ascorbic acid (Millipore-Sigma), 1× Glutamax and 1× penicillin/streptomycin (all from Invitrogen). The inducing medium was maintained for 5 days and changed every other day. On day 5, the cultured cells were split at 1:6 with Accutase and cultured in NBM containing 3 μM CHIR99021, 2 μM SB431542, 0.1 μM retinoic acid (RA, Stemgent) and 0.5 μM purmorphamine (Pur, Stemgent). […]
[…] A SpectraMax iD3 Multi-Mode Microplate Reader (Molecular Devices) was used for measuring fluorescence intensity (560/590 nm).
The apoptotic assay of fibroblasts was by Annexin V-CF Blue/7-AAD Apoptosis Detection Kit (ab214663, Abcam) according to the manufacturer's protocol. […] Finally, the stained samples were analyzed on a Guava Easycyte Flowcytometer (Millipore-Sigma) at an excitation wavelength of 488 nm and emission wavelengths of 525 and 625 nm. […] The stained plate was analyzed on a SpectraMax iD3 Multi-Mode Microplate Reader (495/525 nm). […]

[5] = iPSCs treated 3 days with 10 μM GSK126 before CM collection, N=4, P<0.01

Structure (SMILES): CC[C@H](C)n1cc(C)c2c(C(=O)NCc3c(C)cc(C)[nH]c3=O)cc(-c3ccc(N4CCNCC4)nc3)cc21 [GSK126]
- Effect of treating ALS iPSCs with the epigenetic inhibitor on the neuroprotective activity of their CM ([1]; MNPs exposed to H2O2, pre-treated with CM): significantly reduced the neuroprotective activity
- Apoptosis (Annexin V) of H2O2 exposed ALS-MNPs treated with CM of ALS iPSCs without or with inhibitor pre-treatment [1, 5]: 2.65±0.23
- Viability (MTT) of H2O2 exposed ALS-MNPs treated with CM of ALS iPSCs without or with inhibitor pre-treatment [1, 5]: 0.47±0.02
- Expression of OCT4 compared to the untreated groups (WTC11 and CS07) [2]: the decrease was not significant

Structure (SMILES): C[C@@H]1O[C@@H](CC(=O)O)CC2=C1C(=O)c1c(O)cccc1C2=O [NaA, Nanomycin A]
- Expression of OCT4 compared to the untreated groups (WTC11 and CS07) [2]: significantly decreased

Structure (SMILES): Nc1ncn([C@@H]2O[C@H](CO)[C@@H](O)[C@H]2O)c(=O)n1 [5Aza, 5-Azacytidine]
- Expression of OCT4 compared to the untreated groups (WTC11 and CS07) [2]: significantly decreased

Structure (SMILES): OO [H2O2]
- Cell viability (MTT) after H2O2 treatment [3]: below 50%
- Cell viability after H2O2 treatment, normalized to the values at the 0 concentration [3]: below 0.5
- Viability (MTT) of human MNs with H2O2 alone or co-treated with CM or fraction ([4]; H2O2, 200 μg/ml HBPs, unfractionated CM, N=4): 0.49±0.01
- Motor neuron viability after H2O2 treatment ([4]; human MNs, 200 μM H2O2): below 50%
